Literature values in article PMC5340309 (Biomacromolecules, 2016).

Key:
Details in all cases: included for comparison
[1] = test system: P. aeruginosa (ATCC27853)
[2] = test system: K. pneumoniae (ATCC 13383)
[3] = test system: Methicillin-resistant S. aureus (MRSA, ATCC 33591)
[4] = test system: Methicillin-resistant S. epidermidis (MRSE, RP62A)

For pexiganan, the “MIC P. aeruginosa (Gram−)” value [1] is listed as 16 µg/mL, the “MIC K. pneumonia (Gram−)” value [2] is listed as 32 µg/mL and the “MIC MRSA (Gram+)” value [3] is listed as 16 µg/mL. The “MIC MRSE (Gram+)” value [4] was 8 µg/mL.
